Here are results for 3 compounds from ChEMBL document CHEMBL2417537, “Synthesis and antifungal activity of terpenyl-1,4-naphthoquinone and 1,4-anthracenedione derivatives” (Eur J Med Chem, 2013).

The MIC90 is the lowest concentration that inhibits either 90% of growth or 90% of the strains tested, depending on the study. As a reminder, the IC50 is the concentration that inhibits the measured activity by half.

Molecules are shown by their SMILES. In brackets after ≈: the same amount, converted by molar mass. Activity calls are given as the source filed them. No cut-off for these calls is given here.

The subject of the first data set is Aspergillus fumigatus. As to the kind of experiment: Antifungal activity against Aspergillus fumigatus ATCC 204305 after 48 hrs. The format is functional. The conditions noted are these: ATCC 204305, 48 h.
`CC(C)=CCCc1ccc2c(c1)C(=O)C=CC2=O`: the MIC90 was greater than 32 µg/mL.

Compound `Cc1c2c(nc3ccccc13)C(=O)c1cc(CCCC(C)C)ccc1C2=O` gave an MIC90 greater than 32 µg/mL.

For the compound `CCC(C)n1ncn(-c2ccc(N3CCN(c4ccc(OCC5COC(Cn6cncn6)(c6ccc(Cl)cc6Cl)O5)cc4)CC3)cc2)c1=O` (configuration not stated) [ITRACONAZOLE], the MIC90 stood at 0.2 µg/mL (≈ 0.283 µM).

The next data set deals with Aspergillus terreus. As to the kind of experiment: Antifungal activity against Aspergillus terreus CDC 317 after 48 hrs. The note with it: CDC 317, 48 h. The format is functional.
On to `CC(C)=CCCc1ccc2c(c1)C(=O)C=CC2=O`, for which the MIC90 was greater than 32 µg/mL.

`Cc1c2c(nc3ccccc13)C(=O)c1cc(CCCC(C)C)ccc1C2=O` showed an MIC90 greater than 32 µg/mL.

In the next data set the test system is Candida albicans. Description: Antifungal activity against Candida albicans ATCC 90028 after 24 hrs. The format is functional. The note with it: ATCC 90028, 24 h.
`CC(C)=CCCc1ccc2c(c1)C(=O)C=CC2=O` returned an MIC90 greater than 32 µg/mL.

Turning to `Cc1c2c(nc3ccccc13)C(=O)c1cc(CCCC(C)C)ccc1C2=O`, the MIC90 was greater than 32 µg/mL.

The next data set relates to Candida parapsilosis. As to the kind of experiment: Antifungal activity against Candida parapsilosis ATCC 22019 after 24 hrs. The format is functional. The note with it: ATCC 22019, 24 h.
As to `CC(C)=CCCc1ccc2c(c1)C(=O)C=CC2=O`, the MIC90 is greater than 32 µg/mL.

As for `Cc1c2c(nc3ccccc13)C(=O)c1cc(CCCC(C)C)ccc1C2=O`, the MIC90 is greater than 32 µg/mL.

In turn, `CCC(C)n1ncn(-c2ccc(N3CCN(c4ccc(OCC5COC(Cn6cncn6)(c6ccc(Cl)cc6Cl)O5)cc4)CC3)cc2)c1=O` (configuration not stated) [ITRACONAZOLE] came in with an MIC90 of 0.25 µg/mL (≈ 0.354 µM).

In another data set the test system is Trichophyton rubrum. As to the kind of experiment: Antifungal activity against Trichophyton rubrum ATCC 28188 after 6 days. The conditions noted are these: ATCC 28188, 144 h. The format is functional.
With `CC(C)=CCCc1ccc2c(c1)C(=O)C=CC2=O`, the MIC90 was greater than 32 µg/mL.

`Cc1c2c(nc3ccccc13)C(=O)c1cc(CCCC(C)C)ccc1C2=O` showed an MIC90 greater than 32 µg/mL.

A further data set has as its system Candida tropicalis. Description: Antifungal activity against Candida tropicalis ATCC 200956 after 24 hrs. The format is functional. The note with it: ATCC 200956, 24 h.
`CC(C)=CCCc1ccc2c(c1)C(=O)C=CC2=O`: the MIC90 is greater than 32 µg/mL.

`Cc1c2c(nc3ccccc13)C(=O)c1cc(CCCC(C)C)ccc1C2=O` yielded an MIC90 greater than 32 µg/mL.

For the next data set, the system named is Pichia kudriavzevii. As to the kind of experiment: Antifungal activity against Candida krusei ATCC 6258 after 24 hrs. The format is functional. The note with it: ATCC 6258, 24 h.
Take `CC(C)=CCCc1ccc2c(c1)C(=O)C=CC2=O`: the MIC90 is greater than 32 µg/mL.

On to `Cc1c2c(nc3ccccc13)C(=O)c1cc(CCCC(C)C)ccc1C2=O`, for which the MIC90 is greater than 32 µg/mL.

Turning to `CCC(C)n1ncn(-c2ccc(N3CCN(c4ccc(OCC5COC(Cn6cncn6)(c6ccc(Cl)cc6Cl)O5)cc4)CC3)cc2)c1=O` (configuration not stated) [ITRACONAZOLE], the MIC90 was 0.5 µg/mL (≈ 0.709 µM).

A further data set has as its system Vero. As to the kind of experiment: Cytotoxicity against african green monkey Vero cells after 48 hrs by MTT assay. The format is cell-based. The conditions noted are these: Chlorocebus sabaeus. A general note: Tetrazolium dyes change colour on reduction, which living cells bring about.
`CC(C)=CCCc1ccc2c(c1)C(=O)C=CC2=O` yielded an IC50 of 109 µg/mL (≈ 454 µM).

In turn, `Cc1c2c(nc3ccccc13)C(=O)c1cc(CCCC(C)C)ccc1C2=O` registered a half-maximal inhibitory concentration (IC50) of 115 µg/mL (≈ 322 µM).

With `CCC(C)n1ncn(-c2ccc(N3CCN(c4ccc(OCC5COC(Cn6cncn6)(c6ccc(Cl)cc6Cl)O5)cc4)CC3)cc2)c1=O` (configuration not stated) [ITRACONAZOLE], the IC50 was greater than 50 µg/mL.

The test system of another data set is Clavispora lusitaniae. Description: Antifungal activity against Candida lusitaniae ATCC 200951 after 24 hrs. The format is functional. The note with it: ATCC 200951, 24 h.
Compound `CC(C)=CCCc1ccc2c(c1)C(=O)C=CC2=O` had an MIC90 greater than 32 µg/mL.

In turn, `Cc1c2c(nc3ccccc13)C(=O)c1cc(CCCC(C)C)ccc1C2=O` yielded an MIC90 greater than 32 µg/mL.

In another data set the test system is Candida tropicalis. Description: Antifungal activity against Candida tropicalis CECT 11901 after 24 hrs. The conditions noted are these: CECT 11901, 24 h.
`CC(C)=CCCc1ccc2c(c1)C(=O)C=CC2=O` showed an MIC90 greater than 32 µg/mL.

`Cc1c2c(nc3ccccc13)C(=O)c1cc(CCCC(C)C)ccc1C2=O` showed an MIC90 greater than 32 µg/mL.

The next data set relates to Aspergillus niger. Description: Antifungal activity against Aspergillus niger ATCC 16404 after 48 hrs. The format is functional. The conditions noted are these: ATCC 16404, 48 h.
`CC(C)=CCCc1ccc2c(c1)C(=O)C=CC2=O` came in with an MIC90 greater than 32 µg/mL.

Consider `Cc1c2c(nc3ccccc13)C(=O)c1cc(CCCC(C)C)ccc1C2=O`, for which the MIC90 was greater than 32 µg/mL.

Another data set deals with Candida albicans. As to the kind of experiment: Antifungal activity against Candida albicans ATCC 10231 after 24 hrs. The note with it: ATCC 10231, 24 h. The format is functional.
`CC(C)=CCCc1ccc2c(c1)C(=O)C=CC2=O` yielded an MIC90 greater than 32 µg/mL.

In the case of `Cc1c2c(nc3ccccc13)C(=O)c1cc(CCCC(C)C)ccc1C2=O`, the MIC90 is greater than 32 µg/mL.

The subject of a further data set is Fusarium oxysporum. Description: Antifungal activity against Fusarium oxysporum ATCC 48112 after 48 hrs. The format is functional. The note with it: ATCC 48112, 48 h.
For the compound `CC(C)=CCCc1ccc2c(c1)C(=O)C=CC2=O`, the MIC90 was greater than 32 µg/mL.

As to `Cc1c2c(nc3ccccc13)C(=O)c1cc(CCCC(C)C)ccc1C2=O`, the MIC90 was greater than 32 µg/mL.

For another data set, the system named is Trichophyton mentagrophytes. As to the kind of experiment: Antifungal activity against Trichophyton mentagrophytes ATCC 24198 after 6 days. The format is functional. The conditions noted are these: ATCC 24198, 144 h.
The compound `CC(C)=CCCc1ccc2c(c1)C(=O)C=CC2=O` showed an MIC90 greater than 32 µg/mL.

As for `Cc1c2c(nc3ccccc13)C(=O)c1cc(CCCC(C)C)ccc1C2=O`, the MIC90 was greater than 32 µg/mL.

Tested on in a further data set: not listed separately
Description: Selectivity index, ratio of IC50 for african green monkey Vero cells to IC50 for Candida krusei ATCC 6258. The format is toxicity, cell-based. The note with it: read-out: Ratio IC50.
`CCC(C)n1ncn(-c2ccc(N3CCN(c4ccc(OCC5COC(Cn6cncn6)(c6ccc(Cl)cc6Cl)O5)cc4)CC3)cc2)c1=O` (configuration not stated) [ITRACONAZOLE]: the selectivity ratio was greater than 100.

The next data set concerns Candida parapsilosis. As to the kind of experiment: Antifungal activity against Candida parapsilosis ATCC 22019 at > MIC up to 24 hrs by time kill study. The format is functional, organism-based.
Conditions: not given
On to `CCC(C)n1ncn(-c2ccc(N3CCN(c4ccc(OCC5COC(Cn6cncn6)(c6ccc(Cl)cc6Cl)O5)cc4)CC3)cc2)c1=O` (configuration not stated) [ITRACONAZOLE], for which the result was Active.

The test system of another data set is Aspergillus flavus. Description: Antifungal activity against Aspergillus flavus ATCC 204304 after 48 hrs. The conditions noted are these: ATCC 204304, 48 h. The format is functional.
In turn, `CC(C)=CCCc1ccc2c(c1)C(=O)C=CC2=O` gave an MIC90 greater than 32 µg/mL.

`Cc1c2c(nc3ccccc13)C(=O)c1cc(CCCC(C)C)ccc1C2=O` returned an MIC90 greater than 32 µg/mL.

The compound `CCC(C)n1ncn(-c2ccc(N3CCN(c4ccc(OCC5COC(Cn6cncn6)(c6ccc(Cl)cc6Cl)O5)cc4)CC3)cc2)c1=O` (configuration not stated) [ITRACONAZOLE] had an MIC90 of 0.1 µg/mL (≈ 0.142 µM).
